Experimental data taken from patent US8802104B2, “Parathyroid hormone receptor activation and stem and progenitor cell expansion” (The General Hospital Corporation, priority 2002, dated 2014).

Legend:
[1] = tested on: PTH-stimulated adenylate cyclase; conditions: cited from earlier work
renal PTH receptors = target: T1, renal PTH receptors (Homo sapiens, UniProt Q03431); conditions: cited from earlier work
T1 sequence (Q03431 27-593): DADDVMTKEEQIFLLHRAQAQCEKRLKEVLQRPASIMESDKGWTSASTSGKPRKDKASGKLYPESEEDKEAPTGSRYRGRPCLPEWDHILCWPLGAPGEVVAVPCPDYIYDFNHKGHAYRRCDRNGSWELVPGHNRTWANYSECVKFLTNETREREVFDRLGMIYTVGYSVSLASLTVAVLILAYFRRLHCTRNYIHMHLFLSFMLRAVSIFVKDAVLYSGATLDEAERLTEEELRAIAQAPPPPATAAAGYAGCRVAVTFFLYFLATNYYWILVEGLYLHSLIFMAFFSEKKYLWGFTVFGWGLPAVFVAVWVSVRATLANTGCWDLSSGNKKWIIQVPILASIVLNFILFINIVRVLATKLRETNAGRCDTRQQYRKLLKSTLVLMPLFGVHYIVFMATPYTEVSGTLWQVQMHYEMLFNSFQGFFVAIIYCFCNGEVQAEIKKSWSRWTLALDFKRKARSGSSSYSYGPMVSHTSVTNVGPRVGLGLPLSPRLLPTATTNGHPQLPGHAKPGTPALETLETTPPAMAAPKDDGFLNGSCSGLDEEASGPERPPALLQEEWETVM

C-1498/GFP cells [2] = assay: Recombinant OPN on C-1498/GFP leukemia cell growth in vitro; assay type: cell-based, mouse
Protocol: (§1) To investigate the role of OPN as a candidate molecule, it was explored whether recombinant OPN is sufficient to reproduce the growth inhibition of leukemia cells in vitro. To this end, C-1498/GFP cells were cultured in wells with either (a) no OPN, (b) with 5 and 10 ug/ml of OPN. […] It was therefore concluded that recombinant osteopontin is sufficient to limit leukemic cell expansion. […] Given that PTH increases osteoblast production of OPN, it is likely that OPN participates in the preferential support of normal over leukemic cells in vivo with PTH stimulation of the stem cell niche.

C-1498/GFP cells [3] = assay: Annexin staining of leukemia cells cultured with OPN; assay type: cell-based, mouse; conditions: FIG. 13a
Protocol: as §1

peripheral blood cells = assay: Complete blood count during cyclophosphamide chemotherapy cycles; assay type: in vivo, C57Bl/6 mice; conditions: cyclophosphamide 5 mg per cycle, G-CSF 5 μg/day 8 days
Protocol: (§2) Wild-type C57Bl/6 mice were treated with 5 mg of cyclophosphamide (Day 1). The day following injection of cyclophosphamide, mice received no treatment or were treated for 8 days with G-CSF (5 μg/day), 11 days with PTH (80 μg/kg/day) or a combination of G-CSF plus PTH. Mice that received a combination of both G-CSF and PTH received G-CSF treatment for 8 days and PTH treatment for 11 days. Following this treatment protocol, mice were injected with cyclophosphamide on Day 15 and treated with G-CSF, PTH or G-CSF and PTH as described above. The treatment protocol was then repeated for two subsequent cycles, as outlined in FIG. 7.
During the course of the four treatment cycles, peripheral blood complete blood count (CBC) analysis was performed every 2 to 3 days. This analysis involved the collection of 100 μl of peripheral blood from the tail vein of the mice, which was subsequently analyzed on a HEMAVET 850FS (Drew Scientific). To avoid any deleterious effects from repeated tail bleeds, each individual mouse was only bled once per week.

[4] = tested on: HSC pool in the bone marrow; assay: HSC pool in bone marrow following chemotherapy (competitive transplant); assay type: in vivo, C57Bl/6 mice; conditions: G-CSF alone
Protocol: as §2
(§3) At the end of the four-cycle treatment with cyclophosphamide and G-CSF/PTH, the bone marrow was removed from the treated mice and competitive transplants into B6.SJL mice were performed to measure the maintenance of the HSC pool in the bone marrow. This involved mixing 5×10^5 BM cells from the treated C57Bl/6 mice (CD45.2) with 2.5×10^5 BM cells from the B6.SJL mice (CD45.1). These cells were then injected into lethally irradiated B6.SJL mice. Eighteen weeks following injection of the cells, peripheral blood was collected from the mice and the relative contribution of the HSCs from the treated animals was measured by flow cytometry for the CD45.2^+ cells. To assess the ability of the HSCs to be mobilized into the peripheral circulation, one week following treatment mice were mobilized with G-CSF (5 μg/day) for 5 days. Peripheral blood (300 μl) was collected from these mice and mixed with 2.5×10^5 BM cells from a B6.SJL mouse. These cells were injected into a lethally irradiated B6.SJL host. Eighteen weeks following injection of the cells, peripheral blood was collected from the mice and the relative contribution of the HSCs from the treated animals was measured by flow cytometry for the CD45.2^+ cells.

[5] = tested on: HSCs in the peripheral circulation; assay: G-CSF mobilization of HSCs into peripheral circulation after chemotherapy; assay type: in vivo, C57Bl/6 mice; conditions: supportive growth factor therapy alone during chemotherapy
Protocol: as §2, §3

In the case of PTH(1-34), the agonist activity [1] is listed as “full agonist”.

In the case of [Tyr^34]bPTH(7-34)NH2, the “receptor binding / affinity” value (renal PTH receptors) is given as “moderate affinity” and the agonist activity [1] is given as “does not have any agonist activity”.

In the case of “PTH(1-25) (SVSEIQLMHNLGKHLNSMERVEWLR; Parathyroid hormone; UniProt P01270 32-56, looked up, fragment) [carboxyl-terminally truncated PTH fragment]”, the agonist activity [1] is listed as “inactive”.

In the case of “PTH(25-34) (RKKLQDVHNF; Parathyroid hormone; UniProt P01270 56-65, looked up, fragment)”, the “receptor binding / affinity” value (renal PTH receptors) is listed as “weak receptor binding activity”.

For Osteopontin [OPN], the “inhibition of leukemia cell growth” value (C-1498/GFP cells [2]; 5 and 10 ug/ml OPN, FIG. 13b) was “sufficient to reproduce the inhibition of leukemia cell growth”, the “relative ability to limit primitive cell expansion” value (C-1498/GFP cells [2]; leukemic vs normal cells) was “greater in leukemic compared to normal cells” and the “Annexin staining (mode of effect)” value (C-1498/GFP cells [3]) was “growth inhibition rather than accelerated apoptosis”.

B1: granulocyte colony-stimulating factor (protein, UniProt P09919 31-207, looked up)
Granulocyte …: TPLGPASSLPQSFLLKCLEQVRKIQGDGAALQEKLVSECATYKLCHPEELVLLGHSLGIPWAPLSSCPSQALQLAGCLSQLHSGLFLYQGLLQALEGISPELGPTLDTLQLDVADFATTIWQQMEELGMAPALQPTQGAMPAFASAFQRRAGGVLVASHLQSFLEVSYRVLRHLAQP
notes: growth factor administered to augment recovery from chemotherapy-induced neutropenia
In the case of B1, the “neutrophils count (NE) following chemotherapy” value (peripheral blood cells) is reported as “significant increases”, the “white blood count (WBC) following chemotherapy” value (peripheral blood cells) is reported as “significant increases” and the “HSC pool in the bone marrow following chemotherapy” value [4] is reported as “significant depletion of the HSC pool”. The “mobilization of HSCs into the peripheral circulation” value [5] was “little to no mobilization”.
